Test results reported in patent publication US20170128518A1, “METHODS AND MATERIALS FOR IDENTIFYING AND TREATING MAMMALS RESISTANT TO PROTEASOME INHIBITOR TREATMENTS” (Mayo Foundation for Medical Education and Research, priority 2014, published 2017).
pIC50: −log10 of the molar value.

How the values were obtained:
Format in all cases: cell-based, human
BCWM.1/BR = test: MTS viability assay, BCWM.1/BR; conditions: 72-h MTS assay
Procedure: FIGS. 4A-4D show the characterization of BR WM models, established by subjecting WM cancer cell lines (n=3) chronic drug exposure. […] FIG. 4C is a graph plotting relative fluorescence units in an assay to examine PSMB5 enzyme function by flow cytometry.
(§1) Twenty thousand cells/200 μl in quadruplicates were incubated with serially diluted b-AP15 (1-1000 nmol/l) in 96-well plates at 37° C. for 72 hours. MTS (3-(4,5-dimethylthiazol-2-yl)-5-(3-carboxymethoxyphenyl)-2-(4-sulfophenyl)-2H-tetrazolium) reagent (Molecular Probes, Eugene, Oreg.) was added at 40 μl/well and the plates were further incubated at 37° C. for 3 hours and the developed color was read at 490 nm using a BioTek synergy HT plate reader against blanks with no cells.

MWCL-1 cells = test: MTS viability assay, MWCL-1; conditions: 72-h MTS assay
Procedure: as §1

RPCI-WM1 = test: MTS viability assay, RPCI-WM1; conditions: 72-h MTS assay
Procedure: as §1

[1] = tested on: WM cell lines (BCWM.1, BCWM.1/BR, RPCI-WM1, RPCI-WM/BR); test: NanoString nCounter gene expression profiling; conditions: 50 nmol/l (WT) or 100 nmol/l (BR), 24 hours
Procedure: FIGS. 14A and 14B are diagrams depicting genes altered in b-AP15 treated WM cells. BCWM.1 and RPCI-WM1 were treated with b-AP15 (50 nmol/l), and BR clones were treated with 100 nmol/1 of the DUB inhibitor for 24 hours, followed by collection of RNA for profiling using the NanoString nCounter assay. FIG. 14A is an intersect analysis in which treated (Tx) cell lines were first compared to their untreated counterparts and then against one another to delineate which genes were altered in the same orientation across all four cell lines tested. FIG. 14B is a diagram of an IPA network analysis, depicting the relationship between the 36 genes and illustrating the interaction and relative expression of these genes. The darkness of the node color denotes the degree of differential gene expression as compared to baseline.
Total RNA from four WM cell lines (BCWM.1, BCWM.1/BR, RPCI-WM1 and RPCI-WM/BR) were prepared using Exiqon miRCURY RNA isolation kit (Exiqon, Woburn, Mass. USA) following the manufacturer's instructions. RNA samples were quantitated using a ND-1000 spectrophotometer (NanoDrop) and evaluated for degradation using a 2100 Bioanalyzer (Agilent Technologies, Santa Clara, Calif., USA).
The NanoString nCounter (NanoString, Seattle, Wash.) assay was used for mRNA quantification and expression in WM cells that were treated with b-AP15, as described elsewhere (Geiss et al., Nat Biotechnol 26:317-25, 2008; and Paulus et al., Brit J Haematol 164:352-65, 2014). Briefly, a library is constructed with two sequence-specific probes for the gene of interest. Unique pairs of 3′ reporter and 5′ capture probes are developed to distinguish transcripts for the gene of interest using a color-based barcoding system. The capture probe contains a base pair sequence that is complementary to the target mRNA and linked to a biotin affinity tag, which binds the mRNA of interest. The reporter probe also is also designed to be complementary to the target mRNA, contains a base sequence that is linked to an RNA-based color-coded molecular tag that provides a signal for detection. Using this method, a distinct color code is digitally generated for each gene of interest. In our experiments, all probes were mixed together with total RNA (100 ng from each sample) in a single hybridization reaction for 12 hours at 65° C. in solution. Using the nCounter Prep Station, each probe-mRNA complex was captured post-hybridization onto a streptavidin coated surface, aligned and imaged. Each sample was scanned for 600 FOV on the nCounter Digital Analyzer. As each target mRNA is designated by its unique color code, the level of expression was quantified by counting the number of codes for each molecule. Subsequent normalization of the raw data to internal controls provided by the manufacturer was performed using the nSolver Analysis software v1.1. Data was extracted using the nCounter RCC Collector; based on the positive and negative controls, a cutoff of 20 was used to filter out transcript signals that registered at levels of background noise.
Statistical interpretation and data visualization (heat map) was conducted using Multi Experiment Viewer (MeV) from The Institute for Genomic Research (TIGR) (Saeed et al., Methods Enzymol 411:134-193, 2006; and Saeed et al., Biotechniques 34:374-378, 2003). Using the normalized data that was exported from nCounter RCC Collector, an average of mRNA transcript probe values was taken for each cell line (three biological replicates each) representing controls (untreated) and drug-treated samples, a tab-delimited text file was generated in Microsoft Excel and uploaded into MeV. Genes were log-2 transformed and mean centered. Bi-dimensional, average-linkage, unsupervised hierarchical clustering analysis was applied to find the relationships between samples and genes using the Pearson correlation coefficient.

C=CC(=O)N1C/C(=C\c2ccc([N+](=O)[O-])cc2)C(=O)/C(=C/c2ccc([N+](=O)[O-])cc2)C1 [b-AP15]
pIC50 (BCWM.1/BR): 7.80
pIC50 (MWCL-1 cells): 8.15
pIC50 (RPCI-WM1): 7.80
Average fold change, AKT2 [1]: −2.812 fold
Average fold change, BIRC5 [1]: −2.209 fold
Average fold change, BMI1 [1]: −3.09 fold
Average fold change, CASP2 [1]: −3.679 fold
Average fold change, CCNA2 [1]: −5.841 fold
Average fold change, CCND2 [1]: −3 fold
Average fold change, CCNE1 [1]: −4.193 fold
Average fold change, CDC2 [1]: −4.668 fold
Average fold change, CDC25B [1]: −3.629 fold
Average fold change, CDK4 [1]: −2.59 fold
Average fold change, CSK [1]: −3.871 fold
Average fold change, E2F1 [1]: −3.634 fold
Average fold change, EGR1 [1]: 2.27 fold
Average fold change, ETV6 [1]: −4.643 fold
Average fold change, FOS [1]: 5.569 fold
Average fold change, HDAC1 [1]: −2.887 fold
Average fold change, HRAS [1]: −3.277 fold
Average fold change, IL8 [1]: 14.77 fold
Average fold change, JUN [1]: 5.625 fold
Average fold change, MSH2 [1]: −4.367 fold
Average fold change, MSH6 [1]: −4.242 fold
Average fold change, MYB [1]: −9.647 fold
Average fold change, MYBL2 [1]: −2.794 fold
Average fold change, MYC [1]: −3.287 fold
Average fold change, PCNA [1]: −3.166 fold
Average fold change, RAD54L [1]: −3.029 fold
Average fold change, SERPINE1 [1]: 5.734 fold
Average fold change, SPI1 [1]: −2.522 fold
Average fold change, SYK [1]: −3.84 fold
Average fold change, TFDP1 [1]: −4.261 fold
Average fold change, TFRC [1]: −3.192 fold
Average fold change, TOP2A [1]: −6.321 fold
Average fold change, TUBB [1]: −3.724 fold
Average fold change, TYMS [1]: −3.966 fold
Average fold change, XPC [1]: −3.045 fold
Average fold change, XRCC5 [1]: −2.834 fold
